Results taken from patent US20220288154A1, “GNRH ANTAGONISTS FOR THE TREATMENT OF ESTROGEN-DEPENDENT DISORDERS” (ObsEva S.A., priority 2019, published 2022).
Marks after values point to notes of the source that are not given here.

How the values were obtained:
human GnRH receptor = molecular target: T1, human GnRH receptor (Homo sapiens, UniProt P30968); assay: Affinity for human GnRH receptor; assay type: binding
T1 sequence (P30968 1-328): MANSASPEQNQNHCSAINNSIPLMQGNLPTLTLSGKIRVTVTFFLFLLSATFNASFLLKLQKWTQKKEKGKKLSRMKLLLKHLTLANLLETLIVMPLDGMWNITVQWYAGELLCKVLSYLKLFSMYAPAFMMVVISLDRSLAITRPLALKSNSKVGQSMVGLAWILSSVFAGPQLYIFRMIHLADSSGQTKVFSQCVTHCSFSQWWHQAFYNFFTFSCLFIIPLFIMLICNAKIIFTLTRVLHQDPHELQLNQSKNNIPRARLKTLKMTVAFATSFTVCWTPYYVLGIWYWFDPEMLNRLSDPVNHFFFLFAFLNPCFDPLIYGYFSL

[1] = system: human female patients diagnosed as having uterine fibroids; assay: PRIMROSE 1 Phase 3 placebo-controlled trial in uterine fibroids; assay type: in vivo
Experimental: (§1) The PRIMROSE 1 study, conducted in the United States, enrolled 526 women. The PRIMROSE 2 study, conducted in the United States and Europe, enrolled 535 women. Patients were randomized to one of several cohorts: […] […] Pain levels were measured using a Verbal Rating Score (VRS), as described herein. Patients were also assessed to determine the proportion that reported an improvement in quality of life using the Uterine Fibroids Symptoms and Health-Related Quality of Life questionnaire.

[2] = system: human female patients diagnosed as having uterine fibroids; assay: PRIMROSE 2 Phase 3 placebo-controlled trial in uterine fibroids; assay type: in vivo; conditions: for patients achieving menstrual blood loss ≤80 mL and ≥50% reduction from baseline: 52 weeks
Experimental: as §1

[3] = PRIMROSE 1 and PRIMROSE 2: lumbar spine bone mineral density; assay type: in vivo, human; conditions: 100 mg/day or 200 mg/day + ABT; 24 and 52 weeks
Experimental: To evaluate the safety of compound (VI), patients' bone mineral density levels were measured at baseline and at various timepoints during the studies.

[4] = system: human female patients diagnosed as having endometriosis; assay: Phase 2b placebo-controlled trial in endometriosis: endometriosis-associated pain (daily electronic diary); assay type: in vivo; conditions: for Dyspareunia Mean (SD) Change from baseline (CFB): 0-3 VRS score; for Dyschezia Mean (SD) CFB: 0-10 NRS score; for Overall Pelvic Pain Responder Rate (VRS score reduction of >30% from baseline): after 52 weeks
Experimental: This example describes the results of a Phase 2b, double-blind, randomized, placebo-controlled, multicenter, human clinical trial undertaken to evaluate the efficacy of a GnRH antagonist represented by formula (VI) in a series of patients suffering from an estrogen-dependent disease. In this trial, a series of human female patients diagnosed as having endometriosis were administered the choline salt of 3-[2-fluoro-5-(2,3-difluoro-6-methoxybenzyloxy)4-methoxyphenyl]-2,4-dioxo-1,2,3,4-tetrahydrothieno[3,4d]pyrimidine-5-carboxylic acid periodically over the course of a 52-week treatment period. After 52 weeks of treatment, the patients were monitored for severity of disease symptoms and bone mineral density.
Participants were women aged 18 to 45 years with surgically confirmed endometriosis and moderate to severe EAP. Women with a history of osteoporosis or other metabolic bone disease were excluded. Certain subjects completing an initial 24-week treatment period were invited to continue in a treatment extension phase, resulting in a total of up to 52 weeks of treatment. Subjects that completed 52 weeks of treatment constituted the treatment extension analysis set (TEAS) of patients.
Patients were randomized to either (i) 50 mg/day, 75, mg/day, 100 mg/day, or 200 mg/day of 3-[2-fluoro-5-(2,3-difluoro-6-methoxybenzyloxy)4-methoxyphenyl]-2,4-dioxo-1,2,3,4-tetrahydrothieno[3,4d]pyrimidine-5-carboxylic acid, administered as a choline salt, or (ii) matching placebo. Patients assigned to the placebo cohort were switched to 100 mg/day of 3-[2-fluoro-5-(2,3-difluoro-6-methoxybenzyloxy)4-methoxyphenyl]-2,4-dioxo-1,2,3,4-tetrahydrothieno[3,4d]pyrimidine-5-carboxylic acid at week 12.
Patients that received 75 mg/day of compound (VI) were divided into two groups: those that received a fixed dose (FD) of compound (VI) at 75 mg/day throughout the 52-week treatment period, and those that received a titrated dose (TD) of 75 mg/day of compound (VI) for the first 12 weeks of the treatment period, followed by a daily dose of either 50 mg, 75 mg, or 100 mg of the compound depending on each patient's serum E2 concentration after 4 weeks or 8 weeks of treatment. Dosages from week 12 onward for patients in the 75 mg/day TD cohort were determined according to the following schedule:
Patients that were treated with 200 mg/day of the compound at the 24-week timepoint in the treatment period were switched to 100 mg/day for the final […] of the study.
EAP was assessed using questionnaires in a daily electronic diary. Mean 28-day scores for pelvic pain were calculated at each month up to 12 months and compared to baseline. Efficacy was assessed as the proportion of patients who had at least 30% reduction in OPP at 12 weeks. DYS, NMPP, dyspareunia, and dyschezia were also assessed. […]

[5] = in vivo
Experimental: BMD of the femoral neck, total hip and lumbar spine was assessed by DXA at baseline and after 12 and 24 weeks of treatment. Reading of DXA scans and monitoring of scan quality, including cross-calibration between sites, was centralized.
All bone mineral density measurements shown below were obtained by assessing bone mineral density at each patient's spine.

[6] = 200 mg/day to week 24, then 100 mg/day, 52 weeks

In the case of `COc1cc(F)c(-n2c(=O)[nH]c3csc(C(=O)O)c3c2=O)cc1OCc1c(OC)ccc(F)c1F` [Compound (VI), 3-[2-fluoro-5-(2,3-difluoro-6-methoxybenzyloxy)4-methoxyphenyl]-2,4-dioxo-1,2,3,4-tetrahydrothieno[3,4d]pyrimidine-5-carboxylic acid], the “affinity for human GnRH receptor” value (human GnRH receptor) is reported as 27.4 nM, the “p value: Improvement in quality of life, Change from baseline in QoL symptom severity score (LS mean)” value ([1]; 100 mg/day) is reported as “p = 0.002” and the “patients achieving menstrual blood loss ≤80 mL and ≥50% reduction from baseline” value ([1]; 100 mg/day without ABT, 24 weeks) is reported as 56.4%. The “patients achieving menstrual blood loss ≤80 mL and 50% reduction from baseline” value ([1]; 200 mg/day + ABT (1.0 mg E2 + 0.5 mg NETA), 24 weeks) was 75.5%, the “p value: Improvement in quality of life, Change from baseline in QoL symptom severity score (LS mean)” value ([1]; 200 mg/day + once-daily ABT) was “p < 0.001” and the “p value: Improvement in quality of life, Change from baseline in QoL symptom severity score (LS mean)” value ([2]; 100 mg/day) was “p = 0.004”. The “patients achieving menstrual blood loss ≤80 mL and ≥50% reduction from baseline” value ([2]; 100 mg/day without ABT) was 53.2%, the “patients achieving menstrual blood loss ≤80 mL and ≥50% reduction from baseline” value ([2]; 200 mg/day + ABT) was 91.6% and the “p value: Improvement in quality of life, Change from baseline in QoL symptom severity score (LS mean)” value ([2]; 200 mg/day + once-daily ABT) was “p < 0.001”. The “effect on lumbar spine bone mineral density” value [3] was “does not induce a substantial decrease in bone mineral density”.

With `COc1cc(F)c(-n2c(=O)[nH]c3csc(C(=O)O)c3c2=O)cc1OCc1c(OC)ccc(F)c1F` [GnRH antagonist, 3-[2-fluoro-5-(2,3-difluoro-6-methoxybenzyloxy)4-methoxyphenyl]-2,4-dioxo-1,2,3,4-tetrahydrothieno[3,4d]pyrimidine-5-carboxylic acid] the “Dyspareunia Mean (SD) Change from baseline (CFB)” value (from here on “Dyspareunia Mean (SD) Change”) ([4]; 50 mg/day, 12 weeks) was −0.6 (0.7), the “Dyspareunia Mean (SD) Change” value ([4]; 50 mg/day, 24 weeks) was −0.7 (0.8) and the “Dyspareunia Mean (SD) Change” value ([4]; 50 mg/day, 52 weeks) was −0.5 (1.1). For the same molecule, the “Dyspareunia Mean (SD) Change” value ([4]; 75 mg/day, 12 weeks) was −0.7 (0.8), the “Dyspareunia Mean (SD) Change” value ([4]; 75 mg/day, 24 weeks) was −0.7 (0.8) and the “Dyspareunia Mean (SD) Change” value ([4]; 75 mg/day, 52 weeks) was −0.9 (0.8). For the same molecule, the “Dyspareunia Mean (SD) Change” value ([4]; 100 mg/day, 12 weeks) was −0.7 (0.9), the “Dyspareunia Mean (SD) Change” value ([4]; 100 mg/day, 24 weeks) was −0.6 (0.8) and the “Dyspareunia Mean (SD) Change” value ([4]; 100 mg/day, 52 weeks) was −0.7 (1.1). The “Dyspareunia Mean (SD) Change” value [4, 6] was −0.9 (0.9), the “Dyspareunia Mean (SD) Change” value ([4]; 200 mg/day, 12 weeks) was −0.8 (1.1)* and the “Dyspareunia Mean (SD) Change” value ([4]; 200 mg/day, 24 weeks) was −1.0 (1.0). The “Dyschezia Mean (SD) CFB” value ([4]; 50 mg/day, 12 weeks) was −1.4 (1.7), the “Dyschezia Mean (SD) CFB” value ([4]; 50 mg/day, 24 weeks) was −1.5 (2.1) and the “Dyschezia Mean (SD) CFB” value ([4]; 50 mg/day, 52 weeks) was −2.3 (1.8). For the same molecule, the “Dyschezia Mean (SD) CFB” value ([4]; 75 mg/day, 12 weeks) was −2.1 (2.5)*, the “Dyschezia Mean (SD) CFB” value ([4]; 75 mg/day, 24 weeks) was −2.2 (2.5) and the “Dyschezia Mean (SD) CFB” value ([4]; 75 mg/day, 52 weeks) was −2.1 (2.9). For the same molecule, the “Dyschezia Mean (SD) CFB” value ([4]; 100 mg/day, 12 weeks) was −2.0 (1.8)*, the “Dyschezia Mean (SD) CFB” value ([4]; 100 mg/day, 24 weeks) was −2.0 (2.3) and the “Dyschezia Mean (SD) CFB” value ([4]; 100 mg/day, 52 weeks) was −2.9 (3.1). The “Dyschezia Mean (SD) CFB” value [4, 6] was −2.6 (2.7), the “Dyschezia Mean (SD) CFB” value ([4]; 200 mg/day, 12 weeks) was −1.7 (2.3)* and the “Dyschezia Mean (SD) CFB” value ([4]; 200 mg/day, 24 weeks) was −2.5 (2.6). For the same molecule, the “% responders DYS (dysmenorrhea)” value ([4]; 50 mg/day, 12 weeks) was 43.3%, the “% responders NMPP (non-menstrual pelvic pain)” value ([4]; 50 mg/day, 12 weeks) was 46.2% and the “% responders OPP (overall pelvic pain)” value ([4]; 50 mg/day, 12 weeks) was 49.4%. The “% responders DYS (dysmenorrhea)” value ([4]; 50 mg/day, 24 weeks) was 47.5%, the “% responders NMPP (non-menstrual pelvic pain)” value ([4]; 50 mg/day, 24 weeks) was 50% and the “% responders OPP (overall pelvic pain)” value ([4]; 50 mg/day, 24 weeks) was 52.5%. The “% responders DYS (dysmenorrhea)” value ([4]; 50 mg/day, 52 weeks) was 50%, the “% responders NMPP (non-menstrual pelvic pain)” value ([4]; 50 mg/day, 52 weeks) was 66.7% and the “% responders OPP (overall pelvic pain)” value ([4]; 50 mg/day, 52 weeks) was 66.7%. The “Overall Pelvic Pain Responder Rate (VRS score reduction of >30% from baseline)” value ([4]; 75 mg once daily) was 69.2%, the “% responders DYS (dysmenorrhea)” value ([4]; 75 mg/day, 12 weeks) was 68.2* % and the “% responders NMPP (non-menstrual pelvic pain)” value ([4]; 75 mg/day, 12 weeks) was 58.5* %. The “% responders OPP (overall pelvic pain)” value ([4]; 75 mg/day, 12 weeks) was 61.5* %, the “% responders DYS (dysmenorrhea)” value ([4]; 75 mg/day, 24 weeks) was 58.3% and the “% responders NMPP (non-menstrual pelvic pain)” value ([4]; 75 mg/day, 24 weeks) was 72.9%. For the same molecule, the “% responders OPP (overall pelvic pain)” value ([4]; 75 mg/day, 24 weeks) was 70.8%, the “% responders DYS (dysmenorrhea)” value ([4]; 75 mg/day, 52 weeks) was 69.2% and the “% responders NMPP (non-menstrual pelvic pain)” value ([4]; 75 mg/day, 52 weeks) was 69.2%. For the same molecule, the “% responders OPP (overall pelvic pain)” value ([4]; 75 mg/day, 52 weeks) was 69.2%, the “% responders DYS (dysmenorrhea)” value ([4]; 100 mg/day, 12 weeks) was 68.6* % and the “% responders NMPP (non-menstrual pelvic pain)” value ([4]; 100 mg/day, 12 weeks) was 61.5* %. For the same molecule, the “% responders OPP (overall pelvic pain)” value ([4]; 100 mg/day, 12 weeks) was 56.4* %, the “% responders DYS (dysmenorrhea)” value ([4]; 100 mg/day, 24 weeks) was 82.1% and the “% responders NMPP (non-menstrual pelvic pain)” value ([4]; 100 mg/day, 24 weeks) was 64.1%. For the same molecule, the “% responders OPP (overall pelvic pain)” value ([4]; 100 mg/day, 24 weeks) was 66.7%, the “% responders DYS (dysmenorrhea)” value ([4]; 100 mg/day, 52 weeks) was 69.2% and the “% responders NMPP (non-menstrual pelvic pain)” value ([4]; 100 mg/day, 52 weeks) was 53.8%. The “% responders OPP (overall pelvic pain)” value ([4]; 100 mg/day, 52 weeks) was 53.8%, the “Overall Pelvic Pain Responder Rate (VRS score reduction of >30% from baseline)” value ([4]; 200 mg once daily) was 82.4% and the “% responders DYS (dysmenorrhea)” value [4, 6] was 64.7%. For the same molecule, the “% responders NMPP (non-menstrual pelvic pain)” value [4, 6] was 76.5%, the “% responders OPP (overall pelvic pain)” value [4, 6] was 82.4% and the “% responders DYS (dysmenorrhea)” value ([4]; 200 mg/day, 12 weeks) was 78.9* %. For the same molecule, the “% responders NMPP (non-menstrual pelvic pain)” value ([4]; 200 mg/day, 12 weeks) was 47.7%, the “% responders OPP (overall pelvic pain)” value ([4]; 200 mg/day, 12 weeks) was 56.3* % and the “% responders DYS (dysmenorrhea)” value ([4]; 200 mg/day, 24 weeks) was 84.1%. The “% responders NMPP (non-menstrual pelvic pain)” value ([4]; 200 mg/day, 24 weeks) was 72.7%, the “% responders OPP (overall pelvic pain)” value ([4]; 200 mg/day, 24 weeks) was 77.3% and the “average bone mineral density losses” value [5] was “less than 5%”.
